Measurements as given in publication PMC5062470, “The mGluR2 positive allosteric modulator, SAR218645, improves memory and attention deficits in translational models of cognitive symptoms associated with schizophrenia” (Scientific Reports, 2016).

Key:
[1] = tested on: OF1 mice; assay: Maximal electroshock seizure (MES) test; assay type: in vivo; settings: 10 mg/kg ip; vehicle 100
Description: SAR218645 (30 mg/kg, po) and the reference anticonvulsant agent, diazepam (10 mg/kg), were administered ip to OF1 mice (12–14 g) 30 min prior to test, respectively. An electrical stimulus (60 Hz, 0.8 ms rectangular pulse, 0.4 s duration, 50 mA) was applied to both corneas. The occurrence of tonic extension of the hindlimbs was noted.

[2] = molecular target: T1, rat mGluR3 (Rattus norvegicus, UniProt P31422); assay: [3H]LY341495 binding to membranes; settings: Fig. 5C
T1 construct: expressed in transfected cells; host or cells: inducible HEK-293 cell line (membranes)
Description: Membranes were prepared from an inducible HEK-293 cell line expressing rat mGluR2 or mGluR3. Binding assay was adapted from Johnson et al.[29]. Briefly, [^3H]LY341495 (1.4 nM) was evaluated for binding in the presence or in the absence of orthosteric and allosteric ligands. […] Addition of 5–10 μg membrane protein initiated the incubation. After 45 min at room temperature, the incubation was terminated by rapid filtration followed by scintillation counting. Ki’s were calculated using 4-parameter curve fitting.

[3] = molecular target: rat mGluR2 (Rattus norvegicus, UniProt P31421); assay: [3H]LY341495 binding to membranes; set-up: expressed in transfected cells; host or cells: inducible HEK-293 cell line (membranes)
Description: Binding assay was adapted from Johnson et al.[29]. […] Addition of 5–10 μg membrane protein initiated the incubation. After 45 min at room temperature, the incubation was terminated by rapid filtration followed by scintillation counting. Ki’s were calculated using 4-parameter curve fitting.

[4] = tested on: CD-1 mice; assay: LY404039-induced turning behavior; assay type: in vivo; settings: LY341495 0.3 mg/kg ip; P < 0.001
Description: Under light restraint, a single unilateral intracortical infusion of the selective mGluR2/3 receptor agonist, LY404039, was performed in CD-1 mice (25–30 g at arrival). An injection point was assessed using the eyes and back of the skull as landmarks. Immediately following the application of LY404039, the observation period began. The number of contralateral turns elicited in a 5 min period was recorded. SAR218645 was administered orally 60 min before infusion of LY404039 and the potentiation of the turning behavior was noted. The selective mGluR2/3 receptor antagonist, LY341495, was administered ip 90 min prior to infusion of LY404039. Statistical analysis was performed using Kruskal Wallis test followed by a Wilcoxon two-tailed comparison. Ten animals per group were used.

[5] = molecular target: T2, native mouse mGluR2 (Mus musculus, UniProt Q14BI2); assay: [35S]GTPγS binding to mouse cortex; assay type: biochemical; settings: glutamate EC20 (1 μM) + SAR218645
T2 construct: SAR218645 acted as a pure mGluR2 PAM at native mouse mGluR2 in the cortex; from tissue; host or cells: mouse cortex membranes
Description: The assay was performed in 96-well filtration plates in 250 μl total volume. […] For termination of the reaction, the plate was filtered and dried prior to adding 50 μl Microscint 40, and counted on the 1450 TopCount Microbeta Counter. EC50 were calculated using 4-parameter curve fitting.

[6] = tested on: Sprague-Dawley rats; assay: Amphetamine-induced disruption of auditory evoked potentials (AEP); assay type: in vivo; settings: 3 mg/kg po; amphetamine 3 mg/kg
Description: All recordings were made using Spike2 software (Cambridge Electronic Design, Cambridge, UK) running on a Windows PC connected to a 1401 interface (Cambridge Electronic Design, Cambridge, UK). EEG recordings were created by connecting the skull plug to an amplifying head stage (AI 1401, Axon Instruments, Union City, CA, USA), via a 6-channel commutator and cable (Plastics One, Roanoke, VA, USA). The signal was then further amplified with a multichannel amplifier (Cyberamp 380, Axon Instruments, Union City, CA, USA). Auditory stimuli were controlled by the interface via an eight channel power amplifier (SA8, Tucker Davis Technologies, Alachua, FL) connected to a patch panel (PP16, Tucker Davis Technologies), which was connected to speakers located above each cage (TDT Magnetic Speakers, Tucker Davis Technologies). During recording sessions, animals were placed inside standard mouse cages (30 × 15 × 15 cm) and rigged so that the six channel cables could connect with the rest of the apparatus outside of the cage.
Male Sprague-Dawley rats (150–180 g at arrival) were anesthetized with 3% isoflurane and their scalp was shaved and prepared for surgery. An incision was made in the scalp and the skin was retracted to allow direct contact with the skull surface. The skull was cleaned with a dry Q-tip and five holes were drilled through the skull. Three holes were drilled at coordinates AP + 1 mm, ML + 1 mm (reference); AP−4 mm, ML ± 4 mm (leads 1 and 2) relative to bregma, while an additional hole was drilled in the frontal area (ground) and another hole was drilled at the midpoint between the anterior and posterior coordinate (anchor). […]
AEP data analysis: Data were collected and analyzed using Spike2 software (CED Software, Cambridge, UK). […] Then a horizontal cursor was placed at the highest and lowest (peak and trough) point of the P1/N1 wave, for both the wave occurring to the first tone (S1) and to the second tone (S2), and the value was recorded into an Excel spreadsheet. […]

[7] = tested on: CD-1 mice; assay: DOI-induced head-twitch behaviors; assay type: in vivo; settings: po; DOI 1 mg/kg ip
Description: Male CD-1 mice weighing 25–30 g at the time of testing were used. Animals were brought into the testing area and allowed at least 30 min to acclimatize. The behavior observation was conducted in a wire test chamber measuring 10 cm^3. SAR218645 or the selective 5-HT2A receptor antagonist, volinanserin, was administered po at various times before administration of DOI. DOI was injected ip at a dose of 1 mg/kg. Five minutes later behavioral observation commenced. A trained (blinded) observer continuously watched the mice for 20 min and noted the number of DOI-induced head twitches during this time. The number of head twitches per group was averaged and SAR218645 or volinanserin plus DOI were compared to DOI alone. Three to eight animals per group were used.

rat mGluR2, sequence (P31421 19-872): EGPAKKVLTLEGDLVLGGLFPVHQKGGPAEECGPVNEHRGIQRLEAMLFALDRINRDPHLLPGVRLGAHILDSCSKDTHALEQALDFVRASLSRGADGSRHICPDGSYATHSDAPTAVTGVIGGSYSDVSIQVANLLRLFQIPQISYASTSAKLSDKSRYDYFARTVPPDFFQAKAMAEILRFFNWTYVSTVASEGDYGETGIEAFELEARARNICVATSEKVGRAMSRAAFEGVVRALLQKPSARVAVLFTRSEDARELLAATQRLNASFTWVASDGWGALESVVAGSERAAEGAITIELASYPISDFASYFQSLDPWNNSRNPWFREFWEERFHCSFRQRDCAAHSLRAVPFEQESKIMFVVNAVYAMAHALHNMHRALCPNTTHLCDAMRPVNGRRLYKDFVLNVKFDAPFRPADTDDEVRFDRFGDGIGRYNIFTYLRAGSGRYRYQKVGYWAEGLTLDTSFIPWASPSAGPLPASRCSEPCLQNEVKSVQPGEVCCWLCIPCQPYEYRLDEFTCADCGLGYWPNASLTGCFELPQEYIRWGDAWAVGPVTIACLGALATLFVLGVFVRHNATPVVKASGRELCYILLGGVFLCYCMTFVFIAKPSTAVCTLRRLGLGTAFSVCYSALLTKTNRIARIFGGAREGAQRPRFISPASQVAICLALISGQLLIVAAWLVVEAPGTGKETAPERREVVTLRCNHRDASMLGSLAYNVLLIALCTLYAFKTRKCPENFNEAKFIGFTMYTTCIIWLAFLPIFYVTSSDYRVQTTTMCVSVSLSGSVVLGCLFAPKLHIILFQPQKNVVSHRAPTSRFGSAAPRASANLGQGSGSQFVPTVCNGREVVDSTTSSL
T1 sequence (P31422 23-879): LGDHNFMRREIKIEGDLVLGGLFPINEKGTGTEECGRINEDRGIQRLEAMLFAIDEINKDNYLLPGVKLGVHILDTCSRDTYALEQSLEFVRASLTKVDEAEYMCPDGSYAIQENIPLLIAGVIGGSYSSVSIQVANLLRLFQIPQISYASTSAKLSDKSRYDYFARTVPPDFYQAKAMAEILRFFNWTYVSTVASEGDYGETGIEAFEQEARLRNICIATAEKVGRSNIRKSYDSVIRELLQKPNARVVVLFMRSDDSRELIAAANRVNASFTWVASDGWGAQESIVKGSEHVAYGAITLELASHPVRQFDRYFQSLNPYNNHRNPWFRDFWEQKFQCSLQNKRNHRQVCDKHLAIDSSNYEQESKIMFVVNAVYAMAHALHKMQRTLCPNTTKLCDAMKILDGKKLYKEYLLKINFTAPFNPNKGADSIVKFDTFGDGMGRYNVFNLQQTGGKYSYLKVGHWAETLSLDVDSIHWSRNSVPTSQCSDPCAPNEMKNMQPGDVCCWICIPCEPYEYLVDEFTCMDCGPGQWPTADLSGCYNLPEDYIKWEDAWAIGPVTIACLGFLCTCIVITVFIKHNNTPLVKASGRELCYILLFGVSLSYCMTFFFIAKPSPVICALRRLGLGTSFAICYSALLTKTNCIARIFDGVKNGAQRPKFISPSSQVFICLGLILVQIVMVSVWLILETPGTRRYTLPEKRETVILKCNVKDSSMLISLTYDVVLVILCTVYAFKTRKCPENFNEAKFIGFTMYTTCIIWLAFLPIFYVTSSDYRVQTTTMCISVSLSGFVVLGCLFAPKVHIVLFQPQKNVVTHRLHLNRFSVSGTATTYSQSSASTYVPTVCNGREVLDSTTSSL
T2 sequence (Q14BI2 19-872): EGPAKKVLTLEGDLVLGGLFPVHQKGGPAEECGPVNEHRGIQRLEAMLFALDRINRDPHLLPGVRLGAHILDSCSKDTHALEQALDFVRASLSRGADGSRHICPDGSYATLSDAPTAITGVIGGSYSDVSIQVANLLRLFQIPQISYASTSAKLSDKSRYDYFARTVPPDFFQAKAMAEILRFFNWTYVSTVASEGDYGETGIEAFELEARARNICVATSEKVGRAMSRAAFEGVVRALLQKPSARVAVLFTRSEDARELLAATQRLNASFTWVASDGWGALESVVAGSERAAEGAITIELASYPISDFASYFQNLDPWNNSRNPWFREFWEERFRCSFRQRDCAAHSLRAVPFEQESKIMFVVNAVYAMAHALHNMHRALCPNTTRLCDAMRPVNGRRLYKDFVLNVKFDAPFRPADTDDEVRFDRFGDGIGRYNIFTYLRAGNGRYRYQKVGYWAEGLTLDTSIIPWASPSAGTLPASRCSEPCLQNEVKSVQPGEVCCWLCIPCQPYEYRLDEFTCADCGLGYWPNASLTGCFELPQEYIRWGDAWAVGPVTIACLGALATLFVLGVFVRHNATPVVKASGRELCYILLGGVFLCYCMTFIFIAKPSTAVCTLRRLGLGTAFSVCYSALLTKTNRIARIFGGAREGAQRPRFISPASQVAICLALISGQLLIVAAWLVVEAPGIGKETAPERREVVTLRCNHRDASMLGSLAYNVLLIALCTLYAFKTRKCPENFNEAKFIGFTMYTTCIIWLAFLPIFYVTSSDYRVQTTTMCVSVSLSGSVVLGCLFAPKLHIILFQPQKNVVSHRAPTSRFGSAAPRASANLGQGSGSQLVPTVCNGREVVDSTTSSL

CN1C(=O)CN=C(c2ccccc2)c2cc(Cl)ccc21 [Diazepam, reference compound]
Tonic seizures [1]: 0%

N[C@@H](CCC(=O)O)C(=O)O [Glutamate, L-glutamatic acid, reference compound]
Ki [2]: 400 nM | maximal binding, glutamate alone ([3]; absence of SAR218645, Fig. 5B): 108%

N[C@](CC1c2ccccc2Oc2ccccc21)(C(=O)O)[C@H]1C[C@@H]1C(=O)O [LY341495, reference compound]
antagonism of the effect of SAR218645 (10 mg/kg) on turning [4]: blocked | antagonism of the SAR218645 potentiation [5]: blocked

N[C@@]1(C(=O)O)CS(=O)(=O)[C@H]2[C@H](C(=O)O)[C@H]21 [LY404039, (-)-(1R,4S,5S,6S)-4-amino-2-sulfonylbicyclo[3.1.0]hexane-4,6-dicarboxylic acid, reference compound]
Ki [2]: 901 nM | Ki ([3]; Fig. 5A): 462 nM

O=C(Oc1ccc(Br)cc1)N1CCN2CCC1CC2 [SSR180711, reference compound]
effect on amphetamine-disrupted auditory gating (S2/S1 ratio) [6]: attenuated amphetamine-induced disrupted gating

COc1cccc([C@H](O)C2CCN(CCc3ccc(F)cc3)CC2)c1OC [volinanserin, reference compound]
effect on DOI-induced head twitches (reference) [7]: inhibited
